Like-named read-outs stand apart in the source and are kept apart here.
What was measured:
Assay type in all cases: cell-based
LOX IMVI = assay: NCI60 five-dose screen; settings: Homo sapiens
SW-620 [1] = assay: NCI60 five-dose screen; settings: Homo sapiens
Melanoma panel = assay: NCI60 five-dose screen, panel mean; settings: Homo sapiens, read-out: GI50 Mean
MDA-MB-435 = assay: NCI60 five-dose screen; settings: Homo sapiens
KM12 [2] = assay: NCI60 one-dose screen; settings: Homo sapiens
SK-MEL-5 = assay: NCI60 five-dose screen; settings: Homo sapiens
T-47D = assay: NCI60 one-dose screen; settings: Homo sapiens, T47D, read-out: Growth percent
MOLT-4 = assay: NCI60 one-dose screen; settings: Homo sapiens
PC-3 [3] = assay: NCI60 five-dose screen; settings: Homo sapiens
HOP-62 = assay: NCI60 five-dose screen; settings: Homo sapiens
NCI-H23 = assay: NCI60 five-dose screen; settings: Homo sapiens
KM12 [4] = assay: NCI60 five-dose screen; settings: Homo sapiens
RPMI-8226 = assay: NCI60 one-dose screen; settings: Homo sapiens
UACC-257 [5] = assay: NCI60 one-dose screen; settings: Homo sapiens
MCF7 = assay: NCI60 five-dose screen; settings: Homo sapiens
CAKI-1 = assay: NCI60 five-dose screen; settings: Homo sapiens
OVCAR-5 = assay: NCI60 one-dose screen; settings: Homo sapiens
HOP-92 = assay: NCI60 one-dose screen; settings: Homo sapiens
[6] = test system: 60 human tumor cell lines (NCI60); assay: NCI60 one-dose screen, overall mean; settings: Homo sapiens, read-out: Mean growth percent
SR = assay: NCI60 five-dose screen; settings: Homo sapiens
EKVX = assay: NCI60 one-dose screen; settings: Homo sapiens, read-out: Growth percent
OVCAR-4 = assay: NCI60 five-dose screen; settings: Homo sapiens
COLO 205 = assay: NCI60 one-dose screen; settings: Homo sapiens
DU-145 = assay: NCI60 five-dose screen; settings: Homo sapiens
[7] = test system: Non-small Cell Lung Cancer panel; assay: NCI60 five-dose screen, panel mean; settings: Homo sapiens, read-out: GI50 Mean
UACC-257 [8] = assay: NCI60 five-dose screen; settings: Homo sapiens
NCI-H460 = assay: NCI60 five-dose screen; settings: Homo sapiens
PC-3 [9] = assay: NCI60 one-dose screen; settings: Homo sapiens
SF-539 = assay: NCI60 one-dose screen; settings: Homo sapiens
K-562 = assay: NCI60 one-dose screen; settings: Homo sapiens
[10] = test system: 60 human tumor cell lines (NCI60); assay: NCI60 five-dose screen, overall mean
786-0 = assay: NCI60 five-dose screen; settings: Homo sapiens
SW-620 [11] = assay: NCI60 one-dose screen; settings: Homo sapiens
SN12C = assay: NCI60 five-dose screen; settings: Homo sapiens

CC[C@]12C=CCN3CC[C@@]4(c5ccc(OC)cc5N(C)[C@H]4[C@@](O)(C(=O)OC)[C@@H]1OC(=O)CCCC[P+](c1ccc(F)cc1)(c1ccc(F)cc1)c1ccc(F)cc1)[C@@H]32 [10c]
GI50 (LOX IMVI; Melanoma, read-out: GI50): 16.8 µM
GI50 (SW-620 [1]; SW-620, Colon Cancer, read-out: GI50): 16.5 µM
GI50 (Melanoma panel; mean over Melanoma panel): 12.5 µM
GI50 (MDA-MB-435; MDA-MB-435, Melanoma, read-out: GI50): 12.9 µM
activity at 10 µM (KM12 [2]; KM12, 10 μM, one-dose, read-out: Growth percent): 16%
GI50 (SK-MEL-5; SK-MEL-5, Melanoma, read-out: GI50): 17.1 µM
activity at 10 µM (T-47D; T-47D, 10 μM, one-dose): 12.8%
activity at 10 µM (MOLT-4; MOLT-4, 10 μM, one-dose, read-out: Growth percent): 29.1%
GI50 (PC-3 [3]; PC-3, Prostate Cancer, read-out: GI50): 16.4 µM
GI50 (HOP-62; HOP-62, Non-small Cell Lung Cancer, read-out: GI50): 25.5 µM
GI50 (NCI-H23; NCI-H23, Non-small Cell Lung Cancer, read-out: GI50): 20.1 µM
GI50 (KM12 [4]; KM12, KM12, Colon Cancer, read-out: GI50): 13.4 µM
activity at 10 µM (RPMI-8226; RPMI-8226, 10 μM, one-dose, read-out: Growth percent): 4.14%
activity at 10 µM (UACC-257 [5]; UACC-257, 10 μM, one-dose, read-out: Growth percent): -50.7%
GI50 (MCF7; MCF7, MCF7, Breast Cancer, read-out: GI50): 11.5 µM
GI50 (CAKI-1; CAKI-1, Renal Cancer, read-out: GI50): > 100 µM
activity at 10 µM (OVCAR-5; OVCAR-5, 10 μM, one-dose, read-out: Growth percent): 49.7%
activity at 10 µM (HOP-92; HOP-92, 10 μM, one-dose, read-out: Growth percent): -12.2%
activity at 10 µM ([6]; mean over 60 cell lines, 10 μM, one-dose): 17%
GI50 (SR; Leukemia, read-out: GI50): 14.5 µM
activity at 10 µM (EKVX; 10 μM, one-dose): 53%
GI50 (OVCAR-4; OVCAR-4, Ovarian Cancer, read-out: GI50): 25.1 µM
activity at 10 µM (COLO 205; COLO 205, 10 μM, one-dose, read-out: Growth percent): -43.4%
GI50 (DU-145; DU-145, Prostate Cancer, read-out: GI50): 35.4 µM
GI50 ([7]; mean over Non-small Cell Lung Cancer panel): 24.3 µM
GI50 (UACC-257 [8]; UACC-257, UACC-257, Melanoma, read-out: GI50): 5.59 µM
GI50 (NCI-H460; NCI-H460, Non-small Cell Lung Cancer, read-out: GI50): 29.4 µM
activity at 10 µM (PC-3 [9]; PC-3, 10 μM, one-dose, read-out: Growth percent): 15.7%
activity at 10 µM (SF-539; SF-539, 10 μM, one-dose, read-out: Growth percent): 16%
activity at 10 µM (K-562; K562, K-562, 10 μM, one-dose, read-out: Growth percent): 17.1%
GI50 ([10]; mean over all 60 human cancer cell lines, read-out: GI50 Mean): 24.9 µM
GI50 (786-0; 786-0, Renal Cancer, read-out: GI50): 34.1 µM
activity at 10 µM (SW-620 [11]; SW-620, 10 μM, one-dose, read-out: Growth percent): 36.9%
GI50 (SN12C; Renal Cancer, read-out: GI50): 28.6 µM

CC[C@]12C=CCN3CC[C@@]4(c5ccc(OC)cc5N(C)[C@H]4[C@@](O)(C(=O)OC)[C@@H]1OC(=O)CCCC[P+](C1CCCCC1)(C1CCCCC1)C1CCCCC1)[C@@H]32 [10d]
GI50 (LOX IMVI): 2.9 µM
GI50 (SW-620 [1]; SW-620): 2.75 µM
GI50 (Melanoma panel): 1.96 µM
GI50 (MDA-MB-435; MDA-MB-435): 2.62 µM
activity at 10 µM (KM12 [2]; KM12, read-out: Growth percent): -71.1%
GI50 (SK-MEL-5; SK-MEL-5): 1.88 µM
activity at 10 µM (T-47D): 3.83%
activity at 10 µM (MOLT-4; MOLT-4, read-out: Growth percent): -5.16%
GI50 (PC-3 [3]; PC-3): 1.46 µM
GI50 (HOP-62; HOP-62): 3.9 µM
GI50 (NCI-H23; NCI-H23): 2.34 µM
GI50 (KM12 [4]; KM12): 1.72 µM
activity at 10 µM (RPMI-8226; RPMI-8226, read-out: Growth percent): -45%
activity at 10 µM (UACC-257 [5]; UACC-257, read-out: Growth percent): -82.1%
GI50 (MCF7; MCF7): 1.05 µM
GI50 (CAKI-1; CAKI-1): 16.7 µM
activity at 10 µM (OVCAR-5; OVCAR-5, read-out: Growth percent): 5.84%
activity at 10 µM (HOP-92; HOP-92, read-out: Growth percent): -44.5%
activity at 10 µM ([6]; 60 cell): -36.6%
GI50 (SR): 1.39 µM
activity at 10 µM (EKVX): 13.2%
GI50 (OVCAR-4; OVCAR-4): 2.72 µM
activity at 10 µM (COLO 205; COLO 205, read-out: Growth percent): -76.6%
GI50 (DU-145; DU-145): 3.65 µM
GI50 [7]: 2.95 µM
GI50 (UACC-257 [8]; UACC-257): 1.57 µM
GI50 (NCI-H460; NCI-H460): 2.71 µM
activity at 10 µM (PC-3 [9]; PC-3, read-out: Growth percent): 3.69%
activity at 10 µM (SF-539; SF-539, read-out: Growth percent): -93.9%
activity at 10 µM (K-562; K562, read-out: Growth percent): 7.48%
GI50 ([10]; read-out: GI50 Mean, mean over all 60 human cancer cell lines): 4.29 µM
GI50 (786-0; 786-0): 5.43 µM
activity at 10 µM (SW-620 [11]; SW-620, read-out: Growth percent): 2.08%
GI50 (SN12C): 2.77 µM

Source: publication PMC12028158, “Synthesis and In Vitro Evaluation of the Anticancer Effect of Novel Phosphonium Vindoline Derivatives” (International Journal of Molecular Sciences, 2025)
